The results in this text go back to publication PMC11995724, “Antibiotic target discovery by integrated phenotypic and activity-based profiling of electrophilic fragments” (Cell chemical biology, 2025).

Where a name gives a salt, the structure may show the parent alone.

What is called viability is a read-out of living cells in per cent, often relative to untreated cells.

A short description of the data set: in vitro. The following applies: human, hek293t cells.
In the case of `C=CC(=O)N1CCC(C(=O)NC[C@H]2C[C@@H](O)C2)(c2ccccc2)CC1` [3-O04, 4-phenyl-1-(prop-2-enoyl)-N-{[(1s,3s)-3-hydroxycyclobutyl]methyl}piperidine-4-carboxamide], the viability at 48 h, 25 µM was found to be 118%.

Turning to `CC(Cl)C(=O)NC1COc2ccc(F)cc21` (stereo not shown) [7-A17, 2-chloro-N-(5-fluoro-2,3-dihydro-1-benzofuran-3-yl)propanamide], the viability at 48 h, 25 µM worked out at 74%.

Regarding `CN(CC1CCCCC1)C(=O)C(C)(C)NC(=O)CCl` [6-A19, 2-(2-chloroacetamido)-N-(cyclohexylmethyl)-N,2-dimethylpropanamide], the viability at 48 h, 25 µM worked out at 61.9%.

For `CC(=O)Nc1ccc(C=C(C#N)C(=O)NCc2ccccc2)cc1` [8-D12, N-benzyl-2-cyano-3-(4-acetamidophenyl)prop-2-enamide], the viability at 48 h, 25 µM turned out to be 84.4%.

On to `C=CC(=O)N1CCn2c(nnc2C2CCCC2)C1` [3-C09, 1-{3-cyclopentyl-5H,6H,7H,8H-[1,2,4]triazolo[4,3-a]pyrazin-7-yl}prop-2-en-1-one], for which the viability at 48 h, 25 µM amounted to 29.4%.

With `C=CCNC(=O)C(C#N)=Cc1ccccc1[N+](=O)[O-]` [8-E09, 2-cyano-3-(2-nitrophenyl)-N-(prop-2-en-1-yl)prop-2-enamide], the viability at 48 h, 25 µM came to 109%.

Take `C=CC(=O)N(C)c1ccccc1C(=O)NC` [2-O18, N-methyl-2-(N-methylprop-2-enamido)benzamide]: the viability at 48 h, 25 µM was determined as 114%.

Take `CC(NC(=O)CCl)c1cc(F)ccc1N(C)C` (stereo not shown) [5-L11, 2-chloro-N-{1-[2-(dimethylamino)-5-fluorophenyl]ethyl}acetamide]: the viability at 48 h, 25 µM was determined as 9.52%.

Turning to `Cn1ccc(NC(=O)C(C#N)=Cc2ncccc2C(F)(F)F)n1` [8-F17, 2-cyano-N-(1-methyl-1H-pyrazol-3-yl)-3-[3-(trifluoromethyl)pyridin-2-yl]prop-2-enamide], the viability at 48 h, 25 µM came to 95.2%.

As to `Cc1cc(C(C)(C)C)cc(C)c1CCNC(=O)CCl` [4-A16, N-[2-(4-tert-butyl-2,6-dimethylphenyl)ethyl]-2-chloroacetamide], the viability at 48 h, 25 µM worked out at 0.58%.

`C=CC(=O)NCc1c(C(F)(F)F)coc1C` [1-E17, N-{[2-methyl-4-(trifluoromethyl)furan-3-yl]methyl}prop-2-enamide]: the viability at 48 h, 25 µM worked out at 84.9%.

As for `C=CC(=O)N1CCC(C(=O)NCc2c[nH]cn2)CC1` [2-G10, N-[(1H-imidazol-4-yl)methyl]-1-(prop-2-enoyl)piperidine-4-carboxamide], the viability at 48 h, 25 µM amounted to 98.7%.

Take `O=C(CCl)NCCS(=O)(=O)N1CCc2ccccc21` [6-H04, 2-chloro-N-[2-(2,3-dihydro-1H-indole-1-sulfonyl)ethyl]acetamide]: the viability at 48 h, 25 µM was 14.1%.

Regarding `COc1ccc(NC(C)=O)cc1NC(=O)CCl` [5-G03, 2-chloro-N-(5-acetamido-2-methoxyphenyl)acetamide], the viability at 48 h, 25 µM is 1.44%.

`O=C(CCl)NC1CCN(Cc2ccccc2)C1` (stereo not shown) [6-G18, N-(1-benzylpyrrolidin-3-yl)-2-chloroacetamide hydrochloride]: the viability at 48 h, 25 µM turned out to be 3.85%.

Take `C=CC(=O)NCc1ccccc1S(=O)(=O)N1CCOCC1` [3-H22, N-{[2-(morpholine-4-sulfonyl)phenyl]methyl}prop-2-enamide]: the viability at 48 h, 25 µM was 89.1%.

For the compound `O=C(CCl)NCc1coc(Cl)n1` [6-B04, 2-chloro-N-[(2-chloro-1,3-oxazol-4-yl)methyl]acetamide], the viability at 48 h, 25 µM worked out at 106%.

Take `CCN1C(=O)CC[C@H](CNC(=O)C(C)Cl)[C@H]1c1cnn(C)c1` (mixture of isomers) [6-L13, rac-2-chloro-N-{[(2R,3S)-1-ethyl-2-(1-methyl-1H-pyrazol-4-yl)-6-oxopiperidin-3-yl]methyl}propanamide]: the viability at 48 h, 25 µM worked out at 100%.

Consider `C=CC(=O)N1CCC(C(=O)NCc2ccc(S(N)(=O)=O)cc2)CC1` [3-N10, 1-(prop-2-enoyl)-N-[(4-sulfamoylphenyl)methyl]piperidine-4-carboxamide], for which the viability at 48 h, 25 µM stood at 85.1%.

Turning to `Cc1cc(C=C(C#N)C(=O)Nc2cnn(C)c2)c(C)n1C1CCCCC1` [9-B17, 2-cyano-3-(1-cyclohexyl-2,5-dimethyl-1H-pyrrol-3-yl)-N-(1-methyl-1H-pyrazol-4-yl)prop-2-enamide], the viability at 48 h, 25 µM amounted to 96.1%.

Consider `C=CC(=O)NCC1CCCc2nccn21` (stereo not shown) [2-B15, N-({5H,6H,7H,8H-imidazo[1,2-a]pyridin-5-yl}methyl)prop-2-enamide], for which the viability at 48 h, 25 µM came out at 76.8%.

Take `C=CC(=O)Nc1cc(NC(=O)[C@H]2C[C@@H](C(C)=O)C2(C)C)ccc1F` [2-H22, (1S,3R)-3-acetyl-N-[4-fluoro-3-(prop-2-enamido)phenyl]-2,2-dimethylcyclobutane-1-carboxamide]: the viability at 48 h, 25 µM came out at 97.4%.

Consider `C=CC(=O)NC1CCN(Cc2ccccc2)C1` (stereo not shown) [1-N15, N-(1-benzylpyrrolidin-3-yl)prop-2-enamide], for which the viability at 48 h, 25 µM is 103%.

`O=C(CCl)NC1CCCOc2c(F)cccc21` (stereo not shown) [7-B14, 2-chloro-N-(9-fluoro-2,3,4,5-tetrahydro-1-benzoxepin-5-yl)acetamide]: the viability at 48 h, 25 µM worked out at 0.886%.

In the case of `CCCNC(=O)C(C#N)=Cc1cnc2c(C)cccn12` [9-N14, 2-cyano-3-{8-methylimidazo[1,2-a]pyridin-3-yl}-N-propylprop-2-enamide], the viability at 48 h, 25 µM is 120%.

For the compound `COc1ccc(NC(=O)C(C#N)=Cc2ccco2)cc1` [9-F19, 2-cyano-3-(furan-2-yl)-N-(4-methoxyphenyl)prop-2-enamide], the viability at 48 h, 25 µM was found to be 94.6%.

On to `N#CC(=Cc1ccc(O)cc1)C(=O)NCc1ccc(Cl)cc1` [8-B16, N-[(4-chlorophenyl)methyl]-2-cyano-3-(4-hydroxyphenyl)prop-2-enamide], for which the viability at 48 h, 25 µM was found to be 102%.

Turning to `O=C(CCl)C1CCC2(CC1)CC2` [10-C17, 2-chloro-1-{spiro[2.5]octan-6-yl}ethan-1-one], the viability at 48 h, 25 µM amounted to 60.1%.

Regarding `C=CC(=O)N1CCC(C(=O)N2CCc3ccccc32)CC1` [1-E09, 1-[4-(2,3-dihydro-1H-indole-1-carbonyl)piperidin-1-yl]prop-2-en-1-one], the viability at 48 h, 25 µM is 68%.

In the case of `CC(Cl)C(=O)N1N=C(c2ccc(Cl)cc2)CC1c1ccco1` (stereo not shown) [5-H18, 2-chloro-1-[3-(4-chlorophenyl)-5-(furan-2-yl)-4,5-dihydro-1H-pyrazol-1-yl]propan-1-one], the viability at 48 h, 25 µM was determined as 78.1%.

Regarding `C=CC(=O)N1CCC(C(=O)N[C@H]2CC[C@@H](CC#N)C2)CC1` (racemic) [2-G21, rac-N-[(1R,3S)-3-(cyanomethyl)cyclopentyl]-1-(prop-2-enoyl)piperidine-4-carboxamide], the viability at 48 h, 25 µM came out at 71.9%.

As for `CCOC(=O)c1c(NC(=O)CCl)sc(C)c1C` [4-O15, ethyl 2-(2-chloroacetamido)-4,5-dimethylthiophene-3-carboxylate], the viability at 48 h, 25 µM came to 57%.

For the compound `C=CC(=O)Nc1nc2cc(C(F)(F)F)ccc2n1Cc1ccco1` [1-G11, N-{1-[(furan-2-yl)methyl]-5-(trifluoromethyl)-1H-1,3-benzodiazol-2-yl}prop-2-enamide], the viability at 48 h, 25 µM was determined as 72.5%.

For the compound `C=CC(=O)N(CC1CCOCC1)C1CC1` [2-I08, N-cyclopropyl-N-[(oxan-4-yl)methyl]prop-2-enamide], the viability at 48 h, 25 µM was 88%.

In the case of `C=CC(=O)NCC1CSCCS1` (stereo not shown) [1-K07, N-[(1,4-dithian-2-yl)methyl]prop-2-enamide], the viability at 48 h, 25 µM was found to be 78.1%.

Take `Cc1noc(CC(NC(=O)CCl)c2ccccc2)n1` (stereo not shown) [5-E04, 2-chloro-N-[2-(3-methyl-1,2,4-oxadiazol-5-yl)-1-phenylethyl]acetamide]: the viability at 48 h, 25 µM is 29.3%.

`CC(C)C(NC(=O)CCl)c1ccc(F)c(C#N)c1` (stereo not shown) [6-I19, 2-chloro-N-[1-(3-cyano-4-fluorophenyl)-2-methylpropyl]acetamide]: the viability at 48 h, 25 µM was 1.83%.

In the case of `C=CC(=O)NCC12CC3CC(CC(C3)C1)C2` [1-F17, N-[(adamantan-1-yl)methyl]prop-2-enamide], the viability at 48 h, 25 µM is 110%.

As to `C=CC(=O)Nc1cc(S(=O)(=O)N2CCCCCC2)ccc1OC` [1-A15, N-[5-(azepane-1-sulfonyl)-2-methoxyphenyl]prop-2-enamide], the viability at 48 h, 25 µM came to 1.58%.

Take `CC(NC(=O)CCl)c1cn(-c2ccccc2)nn1` (stereo not shown) [5-O06, 2-chloro-N-[1-(1-phenyl-1H-1,2,3-triazol-4-yl)ethyl]acetamide]: the viability at 48 h, 25 µM was determined as 4.63%.

As for `N#CC(=Cc1ccc2c(c1)OCO2)C(=O)NCc1ccco1` [9-A15, 3-(1,3-dioxaindan-5-yl)-2-cyano-N-[(furan-2-yl)methyl]prop-2-enamide], the viability at 48 h, 25 µM came to 119%.

Take `CCc1ccc(NC(=O)C(C#N)=Cc2ccn(-c3ccccc3)n2)cc1` [8-K22, 2-cyano-N-(4-ethylphenyl)-3-(1-phenyl-1H-pyrazol-3-yl)prop-2-enamide]: the viability at 48 h, 25 µM is 36.8%.

With `O=C(CCl)NCC1(c2ccc3c(c2)OCCO3)CCCC1` [4-I11, 2-chloro-N-{[1-(2,3-dihydro-1,4-benzodioxin-6-yl)cyclopentyl]methyl}acetamide], the viability at 48 h, 25 µM stood at 0.867%.

With `C=CC(=O)NCC1CCN(Cc2ccccc2)CC1C` (stereo not shown) [3-G20, N-[(1-benzyl-3-methylpiperidin-4-yl)methyl]prop-2-enamide], the viability at 48 h, 25 µM turned out to be 94.1%.

On to `Cc1cc(C(=O)CCl)c(C)n1Cc1ccccc1Cl` [10-P16, 2-chloro-1-{1-[(2-chlorophenyl)methyl]-2,5-dimethyl-1H-pyrrol-3-yl}ethan-1-one], for which the viability at 48 h, 25 µM came to 0.942%.

In the case of `CC(Cl)C(=O)Nc1cccc(-c2ncc3n2CCCC3)c1` (stereo not shown) [5-F19, 2-chloro-N-(3-{5H,6H,7H,8H-imidazo[1,5-a]pyridin-3-yl}phenyl)propanamide], the viability at 48 h, 25 µM came to 95.8%.

In the case of `CCN(Cc1ccc(OC)c(F)c1)C(=O)CCl` [5-D09, 2-chloro-N-ethyl-N-[(3-fluoro-4-methoxyphenyl)methyl]acetamide], the viability at 48 h, 25 µM worked out at 1.38%.

For the compound `Cc1cccc(CC(=O)CCl)c1` [10-I19, 1-chloro-3-(3-methylphenyl)propan-2-one], the viability at 48 h, 25 µM stood at 68.3%.

Take `O=C(CCl)N(Cc1ccoc1)C1CCCCC1` [5-B15, 2-chloro-N-cyclohexyl-N-[(furan-3-yl)methyl]acetamide]: the viability at 48 h, 25 µM stood at 0.638%.
